According to US20240376154A1, “BIS-INTERCALATING PEPTIDES, CONJUGATES AND METHODS OF USE” (ZYMEWORKS BC INC., priority 2023, published 2024):

How the values were obtained:
[1] = tested on: herring sperm DNA; assay: DNA melting temperature by differential scanning calorimetry (DSC); type: binding; conditions: DSC; herring sperm DNA; DNA melting temperature = 68° C.
Experimental: Representative compounds prepared as described in Example 2 were assessed in two complementary DNA-binding assays. Increased melting temperature of herring sperm DNA was measured using differential scanning calorimetry (DSC) and binding kinetics were determined by surface plasmon resonance (SPR) using a short DNA hairpin sequence.
DSC experiments were conducted as described in Leng, 2003, Nucleic Acids Res., 31 (21): […], using a Nano DSC (TA Instruments, New Castle, DE) and analyzed using the NanoAnalyze™ software package. Herring sperm DNA solution (Invitrogen 15634017, 10 mg/mL) was diluted to 1 mg/mL (1.4 mM base pair) in BPE buffer (6 mM Na2HPO4, 2 mM NaH2PO4, 1 mM Na4EDTA, pH 7.0). Test articles (20 μL, 10 mM in DMSO) were added and allowed reach equilibrium binding (>3 h), any insoluble material was removed by low-speed centrifugation, then samples were heated from 25 to 110° C. at a scan rate of 1° C./min. Melting curves were plotted and melting temperature was determined using NanoAnalyze™.

[2] = Lipophilicity by experimental HPLC retention time; type: physicochemical; conditions: HPLC retention time as measure of lipophilicity; C18, 10 to 90% CH3CN/H2O with 0.1% FA over 25 min
Experimental: The ability to kill neighboring cells (i.e. bystander effect) is an important property for ADC payloads. For a payload comprising a compound of Formula I to be capable of bystander killing, membrane permeability (or transport) is required and the ability of compounds of Formula I to cross cell membranes and exert a cytotoxic effect was expected to be heavily influenced by lipophilicity.
Compounds were analyzed using an Agilent 1260 HPLC (Agilent Technologies, Inc., Santa Clara, CA) equipped with a Diode array detector and using a Phenomenex Kinetex EVO C18 150×4.6, 2.6 μm column (Phenomenex, Torrance, CA), eluting with 10 to 90% CH3CN/H2O with 0.1% FA over 25 min.

[3] = tested on: tumour cells (at least 4 of a panel of ovarian, breast, lung, pancreatic, placenta, colon cell lines); assay: In vitro cytotoxicity (cell proliferation, CellTiter-Glo), average over tumour cell line panel; type: cell-based; conditions: average pIC50 on all cell lines tested; 5 nights incubation; CellTiter-Glo
Experimental: The ability of representative compounds of Formula I to inhibit proliferation of tumour cells in vitro was evaluated in at least 4 of the following cell lines: OVCAR-3 (ovarian, ATCC), SKOV-3 (ovarian, ATCC), IGROV-1 (ovarian, national research council of Canada (NRC)), OV-90 (ovarian, ATCC), OVKATE (Ovarian, Japanese Collection of Research Bioresources (JCRB) (JCRB1044)), JIMT-1 (breast, NRC), SK-BR-3 (breast, ATCC), T-47D (breast, ATCC), ZR-75-1 (breast, ATCC), MDA-MB-468 (breast, AddexBio), BT-20 (breast, ATCC), BT-474 (breast, NRC), MDA-MB-175 (breast, AddexBio), A549 (lung, collaborator), NCI-H226 (lung, NRC), NCI-H661 (lung, NRC), NCI-H1573 (lung, ATCC). NCI-H1563 (lung, ATCC), H358 (lung, collaborator), EBC-1 (lung, Xenotech), H1299 (lung, NRC), NCI-H292 (lung, ATCC), HCC817 (lung, ATCC), NCI-H441 (lung, ATCC), MIA-PaCa-2 (pancreatic, ATCC), BxPC-3 (pancreatic, ATCC), Panc-1 (pancreatic, ATCC), AsPC-1 (pancreatic, ATCC), JEG-3 (placenta, AddexBio), HT-29 (colon, ATCC).
Cells were cultured per vendor instructions and in log-phase growth were detached by brief incubation in 0.05% trypsin, then resuspended in respective culturing media at 20,000 cells/mL (except for ZR-75 cells, which were resuspended at 10,000 cells/mL). 50 μL/well (˜1000 cells/well) were transferred to sterile tissue culture (TC)-treated 384-well plates (ThermoFisher Scientific, Catalogue #164610) and incubated overnight at 37° C. with 5% CO2 to allow the cells to adhere to the plate surface. The next day, in a sterile, V-bottom, 96-well plate, test articles were titrated 1:3 in complete growth medium, creating a 10-point dose response titration with compounds at 3.5-times the desired final concentration. 20 μL from each dilution were added to the 384-well plate containing the seeded cells and these plates were incubated at 37° C. with 5% CO2 for 5 nights. Cell viability was quantified by first incubating with 15 μL/well of CellTiter-Glo® (Promega, Catalogue #G7572) for 30 minutes, then measuring luminescence with a microplate luminometer (BioTek® Synergy™ H1 Microplate Reader). IC50 values were determined by GraphPad Prism (GraphPad Software, San Diego, CA).
The results are presented in Table 7.1 and discussed in Example 7. Table 7.1 presents the results as average pIC50 values. pIC50=−log (IC50), thus, for example, pIC50=9 is equivalent to IC50=1 nM, and pIC50=6 is equivalent to IC50=1 μM.

Row | SMILES | DNA melt (° C.) [1] | HPLC [2] | pIC50 (average) [3]
1 | CC[C@H](C)[C@H]1C(=O)NC[C@@H](NC(=O)c2nc3ccccc3cc2O)C(=O)N2CCCC[C@H]2C(=O)NCC(=O)N(C)CC(=O)N(C)[C@@H]([C@@H](C)CC)C(=O)O[C@H](C)[C@@H](NC(=O)c2nc3ccccc3cc2O)C(=O)N2CCCC[C@H]2C(=O)NCC(=O)N(C)CC(=O)N1C [Compound 30, N,N′-((7R,8R,11S,19aS,26R,30S,38aS)-11,30-di((S)-sec-butyl)-8,12,15,31,34-pentamethyl-6,10,13,16,19,25,29,32,35,38-decaoxotetratriacontahydro-2H,6H,10H-dipyrido[2,1-b1: 2′,1′-l][1]oxa[4,7,10,13,17,20,23,26,29]nonaazacyclodotriacontine-7,26-diyl)bis(3-hydroxyquinoline-2-carboxamide)] | 85 °C | 20.9 min | 8.3
2 | CC(C)[C@H]1C(=O)NC[C@@H](NC(=O)c2nc3ccccc3cc2O)C(=O)N2CCCC[C@H]2C(=O)NCC(=O)N(C)CC(=O)N(C)[C@@H](C(C)C)C(=O)NC[C@@H](NC(=O)c2nc3ccccc3cc2O)C(=O)N2CCCC[C@H]2C(=O)NCC(=O)N(C)CC(=O)N1C [Compound 35, N,N′-((7R,11S,19aS,26R,30S,38aS)-11,30-diisopropyl-12,15,31,34-tetramethyl-6,10,13,16,19,25,29,32,35,38-decaoxohexatriacontahydro-2H,6H-dipyrido[1,2-a:1′,2′-q][1,4,7,10,13,17,20,23,26,29]decaazacyclodotriacontine-7,26-diyl)bis(3-hydroxyquinoline-2-carboxamide)] | 88 °C | 17.1 min | 7.3
3 | CC(C)[C@H]1C(=O)N(C)C[C@@H](NC(=O)c2nc3ccccc3cc2O)C(=O)N2CCCC[C@H]2C(=O)NCC(=O)N(C)CC(=O)N(C)[C@@H](C(C)C)C(=O)N(C)C[C@@H](NC(=O)c2nc3ccccc3cc2O)C(=O)N2CCCC[C@H]2C(=O)NCC(=O)N(C)CC(=O)N1C [Compound 42, N,N′-((7R,11S,19aS,26R,30S,38aS)-11,30-diisopropyl-9,12,15,28,31,34-hexamethyl-6,10,13,16,19,25,29,32,35,38-decaoxohexatriacontahydro-2H,6H-dipyrido[1,2-a:1′,2′-q][1,4,7,10,13,17,20,23,26,29]decaazacyclodotriacontine-7,26-diyl)bis(3-hydroxyquinoline-2-carboxamide)] | 88 °C | 17.7 min | 7.3
4 | CN1CC(=O)N2CCCC[C@H]2C(=O)NC[C@@H](NC(=O)c2nc3ccccc3cc2O)C(=O)N2CCCC[C@H]2C(=O)NCC(=O)N(C)CC(=O)N2CCCC[C@H]2C(=O)NC[C@@H](NC(=O)c2nc3ccccc3cc2O)C(=O)N2CCCC[C@H]2C(=O)NCC1=O [Compound 49, N,N′-((7R,10aS,22aS,29R,32aS,44aS)-18,40-dimethyl-6,10,16,19,22,28,32,38,41,44-decaoxotetratetracontahydrotetrapyrido[1,2-a:1′,2′-j:1″,2″-q:1″,2′″-z][1,4,7,10,13,17,20,23,26,29]decaazacyclodotriacontine-7,29-diyl)bis(3-hydroxyquinoline-2-carboxamide)] | 97 °C | 15.7 min | 7.2
5 | CC(C)[C@H]1C(=O)NC[C@@H](NC(=O)c2nc3ccccc3cc2O)C(=O)N2CCCC[C@H]2C(=O)NCC(=O)N(C)CC(=O)N(C)[C@@H]([C@@H](C)OC(C)(C)C)C(=O)NC[C@@H](NC(=O)c2nc3ccccc3cc2O)C(=O)N2CCCC[C@H]2C(=O)NCC(=O)N(C)CC(=O)N1C [Compound 54, N,N′-((7R,11S,19aS,26R,30S,38aS)-11-((R)-1-(tert-butoxy)ethyl)-30-isopropyl-12,15,31,34-tetramethyl-6,10,13,16,19,25,29,32,35,38-decaoxohexatriacontahydro-2H,6H-dipyrido[1,2-a:1′,2′-q][1,4,7,10,13,17,20,23,26,29]decaazacyclodotriacontine-7,26-diyl)bis(3-hydroxyquinoline-2-carboxamide)] | 88 °C | 18.4 min | 8.1
6 | CC(C)[C@H]1C(=O)NC[C@@H](NC(=O)c2nc3ccccc3cc2O)C(=O)N2CCCC[C@H]2C(=O)NCC(=O)N(C)CC(=O)N(C)[C@@H]([C@@H](C)O)C(=O)NC[C@@H](NC(=O)c2nc3ccccc3cc2O)C(=O)N2CCCC[C@H]2C(=O)NCC(=O)N(C)CC(=O)N1C [Compound 55, N,N′-((7R,11S,19aS,26R,30S,38aS)-11-((R)-1-hydroxyethyl)-30-isopropyl-12,15,31,34-tetramethyl-6,10,13,16,19,25,29,32,35,38-decaoxohexatriacontahydro-2H,6H-dipyrido[1,2-a:1′,2′-q][1,4,7,10,13,17,20,23,26,29]decaazacyclodotriacontine-7,26-diyl)bis(3-hydroxyquinoline-2-carboxamide)] | 86 °C | 10.6 min | inactive
7 | CC[C@H](C)[C@H]1C(=O)NC[C@@H](NC(=O)c2nc3ccccc3cc2O)C(=O)N2CCCC[C@H]2C(=O)NCC(=O)N(C)CC(=O)N(C)[C@@H](C(C)C)C(=O)NC[C@@H](NC(=O)c2nc3ccccc3cc2O)C(=O)N2CCCC[C@H]2C(=O)NCC(=O)N(C)CC(=O)N1C [Compound 72] | 89 °C | 18.0 min | 7.6
8 | CC(C)[C@H]1C(=O)NC[C@@H](NC(=O)c2nc3ccccc3cc2O)C(=O)N2CCCC[C@H]2C(=O)NCC(=O)N(C)CC(=O)N2CCC[C@H]2C(=O)NC[C@@H](NC(=O)c2nc3ccccc3cc2O)C(=O)N2CCCC[C@H]2C(=O)NCC(=O)N(C)CC(=O)N1C [Compound 77] | 88 °C | 15.0 min | 6.9
9 | CC(C)[C@H]1C(=O)NC[C@@H](NC(=O)c2nc3ccccc3cc2O)C(=O)N2CCCC[C@H]2C(=O)NCC(=O)N(C)CC(=O)N2CCCC[C@H]2C(=O)NC[C@@H](NC(=O)c2nc3ccccc3cc2O)C(=O)N2CCCC[C@H]2C(=O)NCC(=O)N(C)CC(=O)N1C [Compound 82] | 92 °C | 16.4 min | 8.0
10 | CC(C)[C@H]1C(=O)NC[C@@H](NC(=O)c2nc3ccccc3cc2O)C(=O)N2CCCC[C@H]2C(=O)NCC(=O)N(C)CC(=O)N2CCCCC[C@H]2C(=O)NC[C@@H](NC(=O)c2nc3ccccc3cc2O)C(=O)N2CCCC[C@H]2C(=O)NCC(=O)N(C)CC(=O)N1C [Compound 88, N,N′-((5aS,9R,15aS,24S,28R,34aS)-24-isopropyl-20,23,39-trimethyl-6,10,16,19,22,25,29,35,38,41-decaoxotetracontahydro-1H,12H-azepino[1,2-j]dipyrido[1,2-a:1′,2′-q][1,4,7,10,13,17,20,23,26,29]decaazacyclodotriacontine-9,28-diyl)bis(3-hydroxyquinoline-2-carboxamide)] | 88 °C | 16.4 min | 8.5
